Earlier results in patent US20190328884A1, “COMPOSITIONS AND METHODS OF THEIR USE” (Chemic Laboratories, Inc., priority 2018, published 2019).

Settings: in vivo

Compound: NC(=O)N1c2ccccc2C=Cc2ccccc21 [carbamezepine]
- decrease in white blood cell count: 25%
- increase in the risk of blood dyscrasias: five- to eight
- patients shown to have a 25% decrease in their white blood cell count: 7%
